Patent US20090018189A1, “Hormone Sensitive Lipase Modulators And Methods Of Use” (DEVIRIS, priority 2007, published 2009)

Molecular target: T1, recombinant HSL (Homo sapiens, UniProt Q05469)
T1 sequence (Q05469 1-1076): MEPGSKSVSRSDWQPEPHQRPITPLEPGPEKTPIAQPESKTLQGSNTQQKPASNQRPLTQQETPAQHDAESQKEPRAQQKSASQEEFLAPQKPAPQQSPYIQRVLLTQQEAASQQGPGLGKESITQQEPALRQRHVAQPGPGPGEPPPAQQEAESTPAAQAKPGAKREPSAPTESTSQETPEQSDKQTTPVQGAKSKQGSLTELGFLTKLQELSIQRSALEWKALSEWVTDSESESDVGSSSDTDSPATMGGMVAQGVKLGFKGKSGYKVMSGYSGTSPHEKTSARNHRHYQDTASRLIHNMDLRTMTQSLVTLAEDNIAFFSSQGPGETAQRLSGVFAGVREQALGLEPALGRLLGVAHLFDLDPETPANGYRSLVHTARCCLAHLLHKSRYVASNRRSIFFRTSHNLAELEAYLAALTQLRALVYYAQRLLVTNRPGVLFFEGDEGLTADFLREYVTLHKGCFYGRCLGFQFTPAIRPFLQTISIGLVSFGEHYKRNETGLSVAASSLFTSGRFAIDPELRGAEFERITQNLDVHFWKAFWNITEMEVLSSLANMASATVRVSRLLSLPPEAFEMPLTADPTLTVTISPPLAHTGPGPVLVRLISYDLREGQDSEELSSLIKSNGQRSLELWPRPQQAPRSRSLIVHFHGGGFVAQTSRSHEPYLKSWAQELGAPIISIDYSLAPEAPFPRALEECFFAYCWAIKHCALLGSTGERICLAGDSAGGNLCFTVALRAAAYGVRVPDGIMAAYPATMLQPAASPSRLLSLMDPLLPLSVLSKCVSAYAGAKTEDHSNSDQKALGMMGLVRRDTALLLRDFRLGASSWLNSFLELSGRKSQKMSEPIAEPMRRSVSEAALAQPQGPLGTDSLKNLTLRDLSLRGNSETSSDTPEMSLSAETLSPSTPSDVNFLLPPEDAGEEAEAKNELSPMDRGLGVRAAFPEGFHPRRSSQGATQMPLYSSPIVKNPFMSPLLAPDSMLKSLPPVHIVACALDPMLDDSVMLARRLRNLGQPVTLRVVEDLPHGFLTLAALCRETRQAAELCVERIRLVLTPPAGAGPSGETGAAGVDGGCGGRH
Assay: Inhibition of recombinant HSL activity
Type: biochemical
Protocol: Compounds 1-7 were dissolved in 20% DMSO as 10 mg/mL stock, and used in assays with recombinant HSL to test for the potency for inhibiting HSL activity, the protocol for which is described in International Patent Application No. PCT/US07/00284, which is incorporated by reference in its entirety herein. Each compound's inhibitory effect on HSL is shown in FIG. 1 and 2, with Compound 1 having an IC50 of about 0.1 to about 0.2 mg/mL and Compound 5 showing about 40% inhibition at 0.4 mg/mL.

inhibition at 400 µg/mL (at 0.4 mg/mL) [%] | IC50 (compound stock 10 mg/mL in 20% DMSO, read-out: IC50 for inhibiting HSL activity) [µM] | SMILES
~40 | – | COC(=O)C(=O)NC(CC(=O)NCCc1ccc(O)cc1)CC(=O)OCc1ccccc1 (centres unmarked) [Compound 5]
– | 242 to 484 | CCN(CC)C(CC(=O)OCCc1ccc(O)cc1)CC(=O)OCc1ccccc1 (centres unmarked) [Compound 1]
